Test results: publication PMC12564639, “Discovery of a Novel Anticoagulant Cystine Knot Peptide from Spider Venom Gland Transcriptome” (International Journal of Molecular Sciences, 2025)
Peptide text beside a SMILES is read from it.

Experiments:
[1] = system: human plasma, extrinsic clotting cascade; experiment: Prothrombin time (PT); format: biochemical; conditions: GC38 0.1-10 μM; human plasma 20 μL, pre-incubation 5 min at 37 °C, PT reagent; scattered light; n = 3
Method: APTT and PT were measured with commercially available kits according to the manufacturer’s instructions. For APTT determination, 20 μL human plasma was pre-incubated with GC38 (0.1, 1, and 10 µM) at 37 °C for 5 min, and then 30 μL APTT reagent was added and incubated for another 5 min. Subsequently, 40 μL pre-warmed CaCl2 (37 °C) was added to initiate the intrinsic clotting cascade. The intensity of the scattered light was monitored until the signals reached saturation. For PT determination, 20 μL human plasma was pre-incubated with GC38 (0.1, 1, and 10 µM) at 37 °C for 5 min. Then, 75 μL PT reagent was added to initiate the extrinsic clotting cascade. The intensity of the scattered light was monitored until the signals reached saturation. The coagulation time (APTT or PT) was defined as the time point at which the scattered light signal reached the midpoint between the baseline and maximum amplitude. All concentrations were tested in triplicate. Results are shown as mean values, and the time at maximum reactive velocity was also reported.

[2] = system: human keratinocytes (HaCaT); experiment: Cytotoxicity (CCK-8), HaCaT; format: cell-based; conditions: 24 h, n = 3
Method: The cytotoxicity of GC38 was evaluated in human embryonic kidney cells (HEK293T), human keratinocytes (HaCaT), and murine macrophage (RAW264.7) cell lines. The cells were from Kunming Cell Bank, Chinese Academy of Sciences. HEK293T and HaCaT cells were cultured in DMEM supplemented with 10% fetal bovine serum (FBS) and 1% penicillin-streptomycin, and RAW264.7 cells were maintained in RPMI 1640 containing 10% FBS and 1% penicillin–streptomycin, with all cell lines incubated at 37 °C under 5% CO2. For cytotoxicity assessment, cells were seeded at a density of 1 × 10^5 cells per well in 96-well plates and incubated for 12 h. […] After 24 h incubation, cell viability was determined using the CCK-8 assay (10 μL/well). Absorbance was measured at 450 nm using a multi-mode microplate reader (BioTek Synergy™ H1, Winooski, VT, USA). Untreated cells and cells treated with 10% DMSO served as negative and positive controls, respectively. Viability percentages were calculated relative to the untreated control. All experiments were conducted in triplicate, and data were expressed as mean ± SEM.

[3] = system: cortical photothrombotic stroke in mice; experiment: Rose Bengal-mediated cortical photothrombotic stroke (CPS) model; format: in vivo, mouse; conditions: n = 6; for blood flow reduction (cerebral): laser speckle perfusion, vehicle 40.1%
Method: (§1) The C57BL/6J mice (male, 6–8 weeks old) were purchased from Beijing Vital River Laboratory Animal Technology Co., Ltd. (Beijing, China). All animal studies were performed under the approval of the Ethics Committee of the Laboratory Animal Welfare of the Kunming Institute of Zoology, Chinese Academy of Sciences (IACUC-RE-2025-03-010).
The Rose Bengal-mediated CPS model was employed to induce focal cerebral ischemia in mice. Rose Bengal (50 mg/kg), a photosensitive dye, was administered intravenously 1 h before the surgery, followed by an intravenous injection of PBS (vehicle control), GC38 (2 or 4 mg/kg), and heparin sodium (1000 U/kg) 10 min before the surgery. Briefly, mice were anesthetized and secured in a stereotaxic frame. A midline scalp incision was made to expose the skull, followed by illumination with a 562 nm yellow-green laser (R-LG561-100-A5, RWD Life Science, Shenzhen, China) for 7 min. This process generated reactive oxygen species, resulting in endothelial damage and subsequent thrombus formation. Post-illumination, the scalp was sutured, and mice were placed on a warming pad for recovery. Cerebral ischemia severity was evaluated using the LSP imaging system, and the 15-day survival rates after ischemia induction were recorded.

mouse tail bleeding = experiment: Tail bleeding time; format: in vivo, C57BL/6J mice; conditions: n = 6; for tail bleeding time: 10 min after administration, vehicle 89.8 s
Method: as §1
The mouse tail-bleeding assay was performed to evaluate the bleeding risk associated with GC38 treatment. Male C57BL/6J mice (6–8 weeks, n = 6 per group) were randomized to receive intravenous injection of PBS (negative control), GC38 (2 or 4 mg/kg in PBS), or heparin sodium (1000 U/kg, positive control). The assay was conducted 10 min after administration. Mice were anesthetized, and a 2 mm segment of the tail tip was surgically transected using a sterile scalpel. Immediately after the incision, the tail was immersed in prewarmed PBS (37 °C) to facilitate blood flow. Bleeding time was recorded from the moment of the incision until the complete cessation of bleeding (no blood flow for 60 s).

CSCC[C@@H]1NC(=O)[C@H](CC(N)=O)NC(=O)CNC(=O)CNC(=O)[C@H](Cc2c[nH]cn2)NC(=O)[C@H](CCCNC(=N)N)NC(=O)CNC(=O)[C@@H]2CSSC[C@@H]3NC(=O)[C@H](CCCNC(=N)N)NC(=O)[C@H](C)NC(=O)CNC(=O)[C@H](CCCCN)NC(=O)CNC(=O)[C@H](CO)NC(=O)[C@@H](NC(=O)CN)CSSC[C@H](NC(=O)[C@H](CSSC[C@@H](C(=O)N[C@@H](CCC(=O)O)C(=O)N[C@@H](Cc4c[nH]c5ccccc45)C(=O)N[C@@H](CC(N)=O)C(=O)N[C@@H](Cc4c[nH]c5ccccc45)C(=O)N[C@@H](CCCCN)C(=O)N[C@H](C(=O)NCC(=O)O)[C@@H](C)O)NC(=O)[C@H](CO)NC(=O)[C@H](CCCCN)NC(=O)[C@H](Cc4ccc(O)cc4)NC1=O)NC(=O)[C@H](CCCCN)NC(=O)[C@H](CO)NC(=O)[C@@H]1CCCN1C(=O)[C@H](C)NC3=O)C(=O)N[C@@H](CO)C(=O)NCC(=O)N[C@@H](CC(C)C)C(=O)N[C@@H](CO)C(=O)N2 [GC38] (HELM PEPTIDE1{G.C.S.G.K.G.A.R.C.A.P.S.K.C.C.S.G.L.S.C.G.R.H.G.G.N.M.Y.K.S.C.E.W.N.W.K.T.G}$PEPTIDE1,PEPTIDE1,2:R3-15:R3|PEPTIDE1,PEPTIDE1,9:R3-20:R3|PEPTIDE1,PEPTIDE1,14:R3-31:R3$$$V2.0)
prothrombin time (PT) effect [1]: no apparent effects on prothrombin time (PT)
cell viability HaCaT ([2]; 50 μM, serum-free medium, CCK-8, 450 nm, relative to untreated control): greater than 95%
cytotoxicity HaCaT ([2]; 0.1–50 μM, CCK-8): negligible cytotoxicity
blood flow reduction (cerebral) ([3]; GC38 2 mg/kg i.v. 10 min before surgery): 22.0%
blood flow reduction (cerebral) ([3]; GC38 4 mg/kg i.v. 10 min before surgery): 6.4%
microvascular occlusion and ischemic lesions ([3]; GC38 4 mg/kg i.v.): delayed microvascular occlusion and alleviated the formation of ischemic lesions
15-day survival rate ([3]; versus untreated group): improved the 15-day survival rate of mice
tail bleeding time (mouse tail bleeding; GC38 2 mg/kg i.v.): 97.6 s
tail bleeding time (mouse tail bleeding; GC38 4 mg/kg i.v.): 100.6 s
tail bleeding time versus vehicle control (mouse tail bleeding; GC38 2 and 4 mg/kg i.v.): comparable to the vehicle control group
